Measured values from US20060009478A1, “Methods for the treatment of back pain” (priority 2003, published 2006).

Test system: patients with moderate to severe chronic low back pain
Assay: Pain intensity (daily diary, 11-point numerical scale), low back pain study with titration and 12-week fixed-dose period
Type: in vivo, human
Conditions: LOCF, ITT
Experimental: A multicenter, randomized, double-blind, active- and placebo-controlled study was designed and conducted.
In addition, adverse events and opioid-related adverse events were to be recorded in the daily diary.
For the pain intensity (PI) scale assessment, the patient was prompted with the question “How would you rate your overall pain intensity at this time?” and the PI score was recorded in the clinic at the Screening and Baseline Visits. Pain intensity was also assessed by prompting the patient with the questions “How would you rate your overall pain intensity during the past 24 hours?” and a daily PI diary score was recorded at bedtime. For both Pain Intensity prompts, the response was scored on an 11-point numerical scale (0=no pain and 10=severe pain).
The baseline average daily pain intensity score for each patient was calculated as the average of the daily bedtime pain intensity scores recorded during the 3 days immediately prior to baseline/start of titration period visit. The post-baseline average daily pain intensity scores were calculated as the average of the daily bedtime pain intensity scores recorded during the last 3 days of dosing prior to each visit. Missing data was imputed using the last-observation-carried-forward (LOCF) approach for efficacy variables in the fixed-dose period. If the first visit in the fixed-dose period was missing, the last value in the titration period was imputed forward. Unless indicated, all testing of statistical significance was two-sided, and a difference resulting in a p-value of equal to or less than 0.05 was considered statistically significant.
A primary efficacy endpoint was the percent change from baseline to the end of the fixed-dose period (Week 12) in average daily pain intensity. The percent change from baseline was calculated as [PI(baseline)−PI(fixed-dose)]/PI(baseline)*100. Data was summarized descriptively by treatment group. An analysis of covariance (ANCOVA) model including treatment and center as effects and baseline pain intensity as the covariate was used for global and pairwise inferences. Separate models were used to evaluate both the treatment by center and treatment by baseline pain intensity interaction terms.
A primary comparison of interest was oxycodone and naltrexone (e.g., BID or QID) versus oxycodone (e.g., QID). Secondary analyses included actual and percent change from baseline values of daily pain index, SF-12, and Oswestry disability index summarized descriptively by treatment group for both the titration and fixed-dose periods. Treatments were compared globally and in pairwise fashion at each visit in the fixed-dose period using an ANCOVA model that included treatment and center as effects and baseline pain intensity as the covariate. Separate models were used to evaluate both the treatment by center and treatment by baseline pain intensity interaction terms.

## COc1ccc2c3c1O[C@H]1C(=O)CC[C@@]4(O)[C@@H](C2)N(C)CC[C@]314 [OXY QID, oxycodone]
Fixed dose week 7
  Pain intensity actual value at fixed dose week 7, maximum: 10.0
  Pain intensity actual value at fixed dose week 7, mean (SD): 4.0 (2.54)
  Pain intensity actual value at fixed dose week 7, median: 3.3
  Pain intensity actual value at fixed dose week 7, minimum: 0.0
  Pain intensity change from baseline to fixed dose week 7, maximum: 3.0
  Pain intensity change from baseline to fixed dose week 7, mean (SD): −3.6 (2.69)
  Pain intensity change from baseline to fixed dose week 7, median: −4.0
  Pain intensity change from baseline to fixed dose week 7, minimum: −9.7
  Pain intensity percent change from baseline to fixed dose week 7, maximum: 42.9%
  Pain intensity percent change from baseline to fixed dose week 7, mean (SD): −46.8 (34.05) %
  Pain intensity percent change from baseline to fixed dose week 7, median: −52.9%
  Pain intensity percent change from baseline to fixed dose week 7, minimum: −100.0%
Fixed dose week 8
  Pain intensity actual value at fixed dose week 8, maximum: 10.0
  Pain intensity actual value at fixed dose week 8, mean (SD): 4.0 (2.57)
  Pain intensity actual value at fixed dose week 8, median: 3.3
  Pain intensity actual value at fixed dose week 8, minimum: 0.0
  Pain intensity change from baseline to fixed dose week 8, maximum: 3.0
  Pain intensity change from baseline to fixed dose week 8, mean (SD): −3.6 (2.67)
  Pain intensity change from baseline to fixed dose week 8, median: −3.7
  Pain intensity change from baseline to fixed dose week 8, minimum: −9.7
  Pain intensity percent change from baseline to fixed dose week 8, maximum: 42.9%
  Pain intensity percent change from baseline to fixed dose week 8, mean (SD): −46.5 (34.05) %
  Pain intensity percent change from baseline to fixed dose week 8, median: −52.4%
  Pain intensity percent change from baseline to fixed dose week 8, minimum: −100.0%
Fixed dose week 9
  Pain intensity actual value at fixed dose week 9, maximum: 10.0
  Pain intensity actual value at fixed dose week 9, mean (SD): 3.9 (2.57)
  Pain intensity actual value at fixed dose week 9, median: 3.3
  Pain intensity actual value at fixed dose week 9, minimum: 0.0
  Pain intensity change from baseline to fixed dose week 9, maximum: 3.0
  Pain intensity change from baseline to fixed dose week 9, mean (SD): −3.6 (2.70)
  Pain intensity change from baseline to fixed dose week 9, median: −4.0
  Pain intensity change from baseline to fixed dose week 9, minimum: −9.7
  Pain intensity percent change from baseline to fixed dose week 9, maximum: 42.9%
  Pain intensity percent change from baseline to fixed dose week 9, mean (SD): −47.4 (34.17) %
  Pain intensity percent change from baseline to fixed dose week 9, median: −53.3%
  Pain intensity percent change from baseline to fixed dose week 9, minimum: −100.0%
Fixed dose week 10
  Pain intensity actual value at fixed dose week 10, maximum: 10.0
  Pain intensity actual value at fixed dose week 10, mean (SD): 4.0 (2.54)
  Pain intensity actual value at fixed dose week 10, median: 3.7
  Pain intensity actual value at fixed dose week 10, minimum: 0.0
  Pain intensity change from baseline to fixed dose week 10, maximum: 3.0
  Pain intensity change from baseline to fixed dose week 10, mean (SD): −3.6 (2.66)
  Pain intensity change from baseline to fixed dose week 10, median: −3.7
  Pain intensity change from baseline to fixed dose week 10, minimum: −9.7
  Pain intensity percent change from baseline to fixed dose week 10, maximum: 42.9%
  Pain intensity percent change from baseline to fixed dose week 10, mean (SD): −46.8 (33.72) %
  Pain intensity percent change from baseline to fixed dose week 10, median: −52.0%
  Pain intensity percent change from baseline to fixed dose week 10, minimum: −100.0%
Fixed dose week 11
  Pain intensity actual value at fixed dose week 11, maximum: 10.0
  Pain intensity actual value at fixed dose week 11, mean (SD): 3.9 (2.57)
  Pain intensity actual value at fixed dose week 11, median: 3.3
  Pain intensity actual value at fixed dose week 11, minimum: 0.0
  Pain intensity change from baseline to fixed dose week 11, maximum: 3.0
  Pain intensity change from baseline to fixed dose week 11, mean (SD): −3.7 (2.70)
  Pain intensity change from baseline to fixed dose week 11, median: −4.0
  Pain intensity change from baseline to fixed dose week 11, minimum: −9.7
  Pain intensity percent change from baseline to fixed dose week 11, maximum: 42.9%
  Pain intensity percent change from baseline to fixed dose week 11, mean (SD): −48.2 (34.19) %
  Pain intensity percent change from baseline to fixed dose week 11, median: −55.6%
  Pain intensity percent change from baseline to fixed dose week 11, minimum: −100.0%
Fixed dose week 12
  Pain intensity actual value at fixed dose week 12, maximum: 10.0
  Pain intensity actual value at fixed dose week 12, mean (SD): 4.0 (2.53)
  Pain intensity actual value at fixed dose week 12, median: 3.7
  Pain intensity actual value at fixed dose week 12, minimum: 0.0
  Pain intensity change from baseline to fixed dose week 12, maximum: 3.0
  Pain intensity change from baseline to fixed dose week 12, mean (SD): −3.5 (2.65)
  Pain intensity change from baseline to fixed dose week 12, median: −3.7
  Pain intensity change from baseline to fixed dose week 12, minimum: −9.7
  Pain intensity percent change from baseline to fixed dose week 12, maximum: 42.9%
  Pain intensity percent change from baseline to fixed dose week 12, mean (SD): −46.2 (33.60) %
  Pain intensity percent change from baseline to fixed dose week 12, median: −52.0%
  Pain intensity percent change from baseline to fixed dose week 12, minimum: −100.0%
